# Reference: ChEMBL document CHEMBL3228040 (J Med Chem, 1979)
# Active and inactive are the calls of the source. The calls are words filed in the database; no cut-off is given here.
# How the values were obtained:
# Mus musculus [1] = test: Analgesic activity in sc dosed mouse by hot plate assay; format: functional
# Opioid receptor = Opioid receptor (Rattus norvegicus, UniProt P33533+P34975+P33535); test: Displacement of radiolabeled dihydromorphine from opioid receptor in rat brain homogenates; format: tissue-based
# Rhesus monkey [2] = test: Effect on physical dependence capacity in morphine-dependent rhesus monkey at 20 mg/kg by single-dose suppression test; format: functional, organism-based; set-up: dose 20 mg/kg; conditions: Macaca mulatta
# Rhesus monkey [3] = test: Effect on physical dependence capacity in morphine-dependent rhesus monkey assessed as partial suppression of abstinence signs at 20 to 40 mg/kg by single-dose suppression test; format: functional, organism-based; conditions: Macaca mulatta
# Mus musculus [4] = species: Mus musculus; test: Analgesic activity in mouse by Nilsen assay; format: functional
# Mus musculus [5] = species: Mus musculus; test: (§1) Analgesic activity in mouse by tail flick assay; format: functional
# Mus musculus [6] = species: Mus musculus; test: Analgesic activity in mouse assessed as inhibition of PPQ-induced writhing; format: functional
# Mus musculus [7] = species: Mus musculus; test: as §1; format: functional, organism-based
# Rhesus monkey [8] = test: Effect on physical dependence capacity in morphine-dependent rhesus monkey up to 16 mg/kg by single-dose suppression test; format: functional, organism-based; set-up: dose 16 mg/kg; conditions: Macaca mulatta
# Rhesus monkey [9] = test: Effect on physical dependence capacity in morphine-dependent rhesus monkey at 1.2 mg/kg by single-dose suppression test; format: functional, organism-based; set-up: dose 1.2 mg/kg; conditions: Macaca mulatta
Compound,ED50 (Mus musculus [1]),EC50 (Opioid receptor),further results
CC1C2Cc3ccc(O)cc3C1(C)CCN2C (racemic),1.18 mg/kg,9 nM,–
CCOC(=O)C1(c2ccccc2)CCN(CCC#N)CC1,100 mg/kg,8000 nM,Activity (Rhesus monkey [2]): inactive
CCC(=O)C1(c2cccc(O)c2)CCN(CCC#N)CC1,–,1500 nM,Activity (Rhesus monkey [3]): Active; ED50 (Mus musculus [4]): > 50 mg/kg
CCOC(=O)C1(c2ccccc2)CCN(C)CC1 [MEPERIDINE],4.7 mg/kg,–,–
CC[C@H]1C2Cc3ccc(O)cc3[C@@]1(C)CCN2CCC(N)=O (mixture of isomers),19.3 mg/kg,9 nM,Activity (Mus musculus [5]): inactive; inhibition (Mus musculus [6]): inactive; inhibition (Mus musculus [7]): inactive; Activity (Rhesus monkey [8]): inactive
CCC(=O)C1(c2cccc(O)c2)CCN(C)CC1 [KETOBEMIDONE],0.8 mg/kg,2 nM,–
CN1CC[C@]23c4c5ccc(O)c4O[C@H]2[C@@H](O)C=C[C@H]3[C@H]1C5 [MORPHINE],1.2 mg/kg,–,–
CC[C@H]1C2Cc3ccc(O)cc3[C@@]1(C)CCN2CCC#N (mixture of isomers),0.21 mg/kg,4 nM,Activity (Rhesus monkey [9]): Active; ED50 (Mus musculus [5]): 0.8 mg/kg; ED50 (Mus musculus [6]): 0.09 mg/kg; inhibition (Mus musculus [7]): inactive
CC[C@H]1C2Cc3ccc(O)cc3[C@@]1(C)CCN2C (mixture of isomers),1.3 mg/kg,15 nM,Activity (Rhesus monkey [9]): Active; ED50 (Mus musculus [5]): 6.4 mg/kg; ED50 (Mus musculus [6]): 0.2 mg/kg
